We go through 1 molecule from patent publication US10004755B2 (priority 2014, dated 2018).

The conditions of data set [1]: mouse, in vivo.
The conditions of data set [2]: mouse, in vivo. This is another data set of the same source.

On to `CCCCNc1ncc2c(-c3ccc(CN4CCN(C)CC4)cc3)cn([C@H]3CC[C@H](O)CC3)c2n1` [UNC2025A], for which the oral bioavailability result in data set [1] is listed as “orally bioavailable”. Also, the “MTD (predicted dose in chow)” value in data set [2] is on record as 120 mg/kg.
